From publication PMC6749073 (Frontiers in Pharmacology, 2019)

Tests used:
normal ICR mice = experiment: LD50 in normal ICR mice; assay type: in vivo; conditions: tail vein injection
Description: After injection, the animals’ condition was monitored every day for over 1 week by an observer who was blinded to the dose and drug allocation.
Estimates for ED50 and LD50 were calculated through nonlinear regression, data were fitted to a sigmoidal dose-response relationship in Prism (version 4.0a; GraphPad Software, Inc., San Diego, CA). The data were fitted to the equation:
Y=Ymin+Ymax−Ymin/1+10^(LogED50−X)∗HillSlope
where X is the logarithm of concentration, and Y is the response.

H460 = experiment: MTT cell viability assay, H460; assay type: cell-based, human; conditions: 48 h
Description: (§1) Cells were seeded at a density of 1 × 10^4 cells per well in 96-well plates. The following day, these cells were washed with PBS and exposed to different concentrations of testing compounds in culture medium for 48 h. MTT solution (10 μl at 5 mg/ml) was added to each well. After 4 h of incubation at 37°C, the medium was removed, and the insoluble precipitate was dissolved in 100 μl DMSO (Sigma, St. Louis, MO, USA). The absorbance of the dissolved solution at 490 nm was measured using a microplate reader (TECAN A-5082; Megllan, Austria). Cell viability percentages were calculated by dividing the mean optical density (OD) of compound-containing wells by that of the control wells. Each experiment was replicated three times. The IC50 of testing drugs was calculated with Statistical Product and Service Solutions software (SPSS, version 16.0).

HCC827 = experiment: MTT cell viability assay, HCC827; assay type: cell-based, human; conditions: 48 h
Description: as §1

H1299 = experiment: MTT cell viability assay, H1299; assay type: cell-based, human; conditions: 48 h
Description: as §1

LTEP-A-2 = experiment: MTT cell viability assay, LTEP-A-2; assay type: cell-based, human; conditions: 48 h
Description: as §1

Calu-3 = experiment: MTT cell viability assay, Calu-3; assay type: cell-based, human; conditions: 48 h
Description: as §1

A549/DDP = experiment: MTT cell viability assay, A549/DDP; assay type: cell-based, human; conditions: A549/DDP (DDP-resistant), 48 h
Description: as §1

[1] = system: BEAS-2B normal human lung epithelial cell line; experiment: MTT cell viability assay, BEAS-2B; assay type: cell-based
Description: as §1

A549 xenograft tumors = experiment: A549 xenograft tumor growth in nude mice; assay type: in vivo; conditions: 30, 60, 120 mg/kg, tail vein every 3 days
Description: (§3) Cells in logarithmic growth were washed with PBS and suspended in serum-free medium. Portions of the suspension (5 × 10^6 cells in 0.1 ml/mouse) were mixed at a 3:1 ratio with Matrigel basement membrane matrix and injected subcutaneously into the mice. Following 2 weeks of growth, tumor tissues were cut into multiple 2 × 2 × 2 mm^3 pieces and implanted using a range trocar subcutaneously (s.c. injection) into the left forepaw armpit of each mouse ([Jiang et al., 2017]). Treatment with pharmacology was started when the tumors reached an average volume of 100–200 mm^3. The mice were randomly divided into six groups (n = 14/group).
(§4) Body weight and tumor size were assessed every 3 days. Tumor size was measured using a caliper, the volumes were calculated according to the following standard formula: V = (L × W^2)/2 (V = tumor volume, L = largest diameter of tumor, W = smallest diameter of tumor). On day 25, all mice were sacrificed by cervical dislocation, and the tumors were removed and weighed.

H292 xenograft tumor = H292 xenograft tumor growth in nude mice; assay type: in vivo; conditions: 120 mg/kg, tail vein every 3 days
Description: as §3, §4

LTEP-A-2 xenograft tumor = LTEP-A-2 xenograft tumor growth in nude mice; assay type: in vivo; conditions: comparable to DDP 6 mg/kg and CBP 60 mg/kg
[2] = Body weight and tolerability of A549 and H292 xenograft mice; assay type: in vivo
Description: as §3, §4

ICR mice = experiment: General neurotoxicity observation in ICR mice; assay type: in vivo; conditions: i.v.
From the text: The animals were observed daily for any evident symptoms of sickness. Changes in their appearance (e.g., kyphosis and altered grooming), behavior (altered nesting) and activity (altered exploring) were monitored for general neurotoxicity assessment.

rats = experiment: Renal pathology (H&E) in rats; assay type: in vivo; conditions: 7.5, 15, and 30 mg/kg twice a week for 4 weeks
Description: Total 30 rats were employed in the experiments, 20 rats were euthanized with isoflurane 3 days after the last administration, and the kidneys were excised and examined by the H&E staining, and the remaining 10 rats were handled after the recovery period (two weeks after the last administration). We found drug-related renal changes were appeared in the rats, especially in the high dose group (30 mg/kg). Of all the changes, the renal tubular epithelium denaturation/regeneration and tubular dilation are the most obvious, which are early appeared after 7.5 mg/kg treatment at both last administration and during recovery period.

H292 cells = experiment: Cell cycle by PI flow cytometry, H292; assay type: cell-based, human; conditions: diplatin 50 μM, DDP 5 μM, CBP 100 μM
Description: (§2) Then, the cells were trypsinized, washed with PBS, and fixed in 1.5 ml 95% ethanol and left at 4°C overnight. They were then incubated with RNase and stained with propidium iodide (PI) (Multi Sciences Biotech Co., Ltd). PI absorbance was determined using a Cytomics FC500 Flow Cytometer (Beckman Coulter, USA).

H460 cells = experiment: Cell cycle by PI flow cytometry, H460; assay type: cell-based, human; conditions: diplatin 50 µM, DDP 5 µM, CBP 100 µM
Description: as §2

[3] = system: VEGF, p53, and Bax expression in the xenograft A549 and H292 lung tumor tissue; experiment: Immunohistochemistry of xenograft tumor sections; assay type: in vivo, mice
Description: All tumor tissues were harvested and fixed in 4% buffered formalin. After 72 h, tumor tissues were embedded in paraffin and cut into 4 μm sections for immunohistochemistry assays. The streptavidin–biotin complex (SABC) method was used for immunohistochemical staining. Lung tissue sections from mice with no intervention were used as controls. The section slides were baked in an oven at 60°C for 1 h, washed in xylene, and hydrated in different concentrations of alcohol. Subsequently, endogenous peroxidase activity was quenched with 3% hydrogen peroxide for 10 min. To unmask the antigen, the slides were submerged in citrate buffer (0.01 M, pH 6.0) at 95°C for 5 min. The slides were blocked for 20 min with normal goat serum blocking solution. Primary antibodies were incubated at 4°C overnight. Primary antibody dilutions were as follows: 1:200 for VEGF, p53, and Bax. Immunocomplexes were visualized with 3,3′-diaminobenzidine (DAB), and the density was measured with the DP2-BSW software (Olympus, Tokyo, Japan).

[4] = system: JNK, Erk1/2 and p38 phosphorylation in A549 and H292 cells; experiment: Western blot of MAPK phosphorylation (JNK, Erk1/2, p38); assay type: cell-based, human
Description: Cells were treated with diplatin, DDP, and CBP before being lysed. After centrifugation at 12,000 rpm for 10 min, an equal amount of protein from each group was subjected to electrophoresis on 10% SDS-PAGE gels. The proteins in the gel were then electroblotted onto polyvinylidene fluoride (PVDF) membranes (Millipore, Massachusetts, USA). After incubation in the blocking buffer (1× TBS, 0.1% Tween-20, and 5% w/v dry nonfat milk) for 1 h at room temperature, the membranes were incubated with the primary antibody at 4°C overnight. Next, membranes were rinsed with TBST, and then secondary antibodies were applied (LI-COR, USA) at room temperature for 1 h. Immunoreactive bands were visualized by a two-color infrared imaging system (Odyssey, LI-COR, USA).

A549/DDP xenograft tumor = conditions: diplatin 120 mg/kg vs DDP 6 mg/kg and CBP 60 mg/kg
Description: as §3, §4

In the case of `CCN(CC)CCCCC1C(=O)[O][Pt][O]C1=O.N[C@@H]1CCCC[C@H]1N.O=P(O)(O)O` [Diplatin], the “Mice LD50” value (normal ICR mice) is reported as 496 mg/kg, the IC50 (H460) is reported as 40.7 µM and the IC50 (HCC827) is reported as 25 µM. For the same molecule, the IC50 (H1299) was 57.5 µM, the IC50 (LTEP-A-2) was 24.6 µM and the IC50 (Calu-3) was 161 µM. For the same molecule, the IC50 (A549/DDP) was 133 µM, the IC50 ([1]; BEAS-2B normal lung epithelial cells, MTT, 48 h) was 47.9 µM and the “suppression of the viability of BEAS-2B cells compared to DDP” value ([1]; vs DDP) was “threefold less suppression”. For the same molecule, the “effect on growth of A549 xenograft tumors” value (A549 xenograft tumors) was “dose-dependently inhibited the growth”, the “inhibition of H292 xenograft tumor growth” value (H292 xenograft tumor) was 65.0% and the “effect on LTEP-A-2 xenograft tumor volume and weight” value (LTEP-A-2 xenograft tumor) was “significant inhibition on xenograft tumor volume and weight”. For the same molecule, the “effect on body weight” value ([2]; diplatin 30 mg/kg and 60 mg/kg) was “no observable effects”, the “reduction of body weight by day 25” value ([2]; diplatin 120 mg/kg, CBP 60 mg/kg, every 3 days i.v.) was 14.38% and the “animals showing signs of mild kyphosis and piloerection” value (ICR mice; 240 mg/kg twice a week for 4 weeks) was “approximately 20%”. The “changes in behavior (altered nesting) and activity (altered exploring)” value (ICR mice; 60, 120, or 240 mg/kg twice a week for 4 weeks) was “no notable changes”, the “renal pathology in rats” value (rats) was “nephrotoxicity” and the “effect on cell cycle distribution” value (H292 cells) was “failed to arrest any portion of the cell cycle”. The “effect on cell cycle distribution” value (H460 cells) was “failed to arrest the cells in the G2/M phase”, the “VEGF expression in tumor sections compared to the control” value ([3]; 120 mg/kg) was “lower expression of VEGF” and the “p53 and Bax expression in the A549 and H292 tumor sections” value ([3]; 120 mg/kg) was “significantly enhanced”. For the same molecule, the “effect on p53 expression in tumor sections compared with DDP and CBP treatment” value ([3]; diplatin 120 mg/kg vs DDP and CBP) was “nearly two-fold more potent”, the “concentration of apparent maximum JNK phosphorylation” value ([4]; 0.5 h exposure) was 25 µM and the “Erk1/2 and p38 phosphorylation” value ([4]; diplatin 10, 25, 50 μM, DDP 5 μM, CBP 100 μM) was “failed to induce Erk1/2 and p38 phosphorylation”. The JNK phosphorylation levels ([4]; diplatin 10–50 μM, DDP 10 μM, 0.5 h) was “elevated” and the “antitumor activity in A549/DDP xenograft tumor” value (A549/DDP xenograft tumor) was “more potent antitumor activities than DDP and CBP”.
